The source of these data is article PMC10840709 (Cell chemical biology, 2023).

Structures are written as SMILES.

One experiment deals with CSNK2A2 (Homo sapiens, UniProt P19784). As to the kind of experiment: HotSpot […]-ATP kinase assay. It counts as biochemical.
Another experiment concerns the target BRAF V600E (Homo sapiens, UniProt P15056, V600E). Put plainly: NanoBRET target engagement in HEK293 cells. It counts as cell-based.
The target in the next experiment is BRAF (Homo sapiens, UniProt P15056). As to the kind of experiment: HotSpot […]-ATP kinase assay. It counts as biochemical.
Chain of BRAF (P15056 2-766): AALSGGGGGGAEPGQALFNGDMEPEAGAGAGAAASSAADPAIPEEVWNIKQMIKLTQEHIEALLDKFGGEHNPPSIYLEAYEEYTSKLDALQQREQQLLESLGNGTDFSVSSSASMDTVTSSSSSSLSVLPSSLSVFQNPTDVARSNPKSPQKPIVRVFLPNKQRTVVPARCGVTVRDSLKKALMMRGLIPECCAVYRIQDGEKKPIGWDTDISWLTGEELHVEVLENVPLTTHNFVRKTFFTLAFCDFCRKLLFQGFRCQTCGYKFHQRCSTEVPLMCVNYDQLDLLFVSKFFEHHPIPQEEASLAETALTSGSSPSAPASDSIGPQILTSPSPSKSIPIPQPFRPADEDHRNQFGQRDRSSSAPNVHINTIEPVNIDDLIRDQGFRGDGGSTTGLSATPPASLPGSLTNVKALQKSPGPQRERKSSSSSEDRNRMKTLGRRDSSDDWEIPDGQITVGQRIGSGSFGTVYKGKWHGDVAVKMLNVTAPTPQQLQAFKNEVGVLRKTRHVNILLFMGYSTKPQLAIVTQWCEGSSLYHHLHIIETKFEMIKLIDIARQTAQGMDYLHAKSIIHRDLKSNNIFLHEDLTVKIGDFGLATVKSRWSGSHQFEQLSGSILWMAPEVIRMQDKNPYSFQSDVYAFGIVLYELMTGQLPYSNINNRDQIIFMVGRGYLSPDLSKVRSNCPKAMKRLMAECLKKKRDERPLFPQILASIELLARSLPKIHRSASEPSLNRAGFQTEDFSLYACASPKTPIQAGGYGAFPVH

Chain of BRAF V600E (P15056 2-766 V600E): as the sequence (P15056 2-766) above, with V599E counted along it
Chain of CSNK2A2 (P19784 whole entry): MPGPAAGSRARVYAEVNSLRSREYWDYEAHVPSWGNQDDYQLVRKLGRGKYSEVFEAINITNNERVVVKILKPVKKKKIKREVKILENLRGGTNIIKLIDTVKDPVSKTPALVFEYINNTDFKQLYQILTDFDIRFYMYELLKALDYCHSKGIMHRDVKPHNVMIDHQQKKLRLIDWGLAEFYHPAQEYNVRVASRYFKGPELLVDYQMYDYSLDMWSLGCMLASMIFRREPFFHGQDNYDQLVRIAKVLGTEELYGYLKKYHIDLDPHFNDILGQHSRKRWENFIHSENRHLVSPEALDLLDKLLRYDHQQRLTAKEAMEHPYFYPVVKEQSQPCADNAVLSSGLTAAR

Usually IC50 stands for the concentration that gives 50% inhibition. On CSNK2A2, `CCN1CCN(Cc2ccc(Nc3ncc(F)c(-c4cc(F)c5nc(C)n(C(C)C)c5c4)n3)nc2)CC1` [abemaciclib] yielded an IC50 of 36.4 nM.

On to `Cc1ccc(NC(=O)c2ccc(CN3CC[C@H](N(C)C)C3)c(C(F)(F)F)c2)cc1Nc1nccc(-c2cncnc2)n1` [bafetinib], for which the IC50 stood at 217 nM against BRAF V600E and 41.6 nM on BRAF.
